Legend:
N171-82Q HD mice = assay: High-altitude balance beam (5 mm) experiment 2, HD mice; format: in vivo, mouse; conditions: 5 mg/kg/d intragastric
Experimental: 7-week-old N171-82Q HD male mice were paired with female B6C3F1/J hybrid mice to obtain newborn mice. From 21 days of age, male mice were housed in separate cages. 0.5 cm of mouse tail tissue was removed to extract DNA to determine the genotype of the mouse, such that N171-82Q HD mice and WT mice needed for the experiment were obtained. The mice were randomly divided into WT Vehicle group (normal mice), WT test compound group (administration group of normal mice, 5 mg/kg/d, n=10), HD Vehicle group (blank group of HD mice, n=15), HD test compound group (administration groups 1-5 of HD mice, 5 mg/kg/d, n=10). The test compound was suspended in 1% CMC-Na solution and administered by intragastric administration until the end of the study. The weights of the mice were measured every week. Behavioral tests were performed at 12 weeks, 18 weeks, and 24 weeks of age to investigate motor function. At 20 weeks, 3 samples of tissue from each group were used for western blotting and immunohistochemistry. At 24 weeks, MRI scans were performed. At the end of the study, the effect of the test compound on the mortality of mice was evaluated.
The software Sigmaplot 13.0 was used for statistical analysis of the data, and the data of each group was expressed as mean standard error (x±SEM). Behavioral test results were analyzed using two-way (genotype and processing factor) ANOVA and post-ho tests, the comparison and statistics of weight data were performed using two-way (genotype and age) ANOVA of repeated measures, and mortality was counted using Kaplan-Meier method. Other measurement data were analyzed by one-way ANOVA. P<0.05 was considered statistically significant.
The motor function of mice was evaluated by the rotarod experiment and three types of balance beam experiments. The shorter the time for mouse to cross the balance beam, and the longer the time to drop, the stronger the coordination ability of the mouse.
A square balance beam with a length of 100 cm and a width of 11 mm was placed at a 45-degree angle to the horizontal ground. A black box (12×12×12 cm) was placed at the end of the balance beam, and the starting platform was illuminated by bright lights. Spacers were placed under the balance beam to provide cushioning in case that the animal falls off the beam. One hour before the test, the mice were trained to cross the beam three times at one-eighth, one-quarter, and full-length distances from the black box, respectively. If the mice stopped walking during training, they were gently pressed with long forceps on the tail to encourage movement. After the training experiment, the mice rested for at least one hour in an undisturbed environment. In the experiment, the maximum time for each mouse to cross the balance beam was set to 60 seconds. If the time for crossing the beams was greater than 60 seconds, it was recorded as 60 seconds.
a square balance beam with a length of 80 cm and a width of 5 mm was place at a height of about 50 cm from the ground. The following steps are the same as the slope balance beam experiment.

Phospho-Akt S473 = assay: ELISA analysis of Phospho-Akt S473 in primary cortical neuron cells; format: cell-based, mouse; conditions: 500 nM, 10 min at 37° C.
Experimental: The primary cortical neuron cells were cultured in the same way as in Example 21, and after maturity, appropriate amount of freshly prepared culture medium was added until final volume in each well was 2 mL. The experiment included a blank control group (Vehicle), a positive control group BDNF (10 ng/mL), a control compound group (500 nM), and 6 test compound groups (500 nM). Three repeats were set for each dose. After incubating at 37° C. for 10 min, the culture solution was discarded and the cells were washed with pre-chilled PBS, and then 40 μL of pre-chilled lysate (RIPA buffer 10 mL and protease and phosphatase inhibitor 100 μL) was added to each well for lysis on ice for 30 min. After lysis, the cell was crushed by ultrasonic cell crusher, centrifuged at 14000 rpm for 20 min at 4° C. The supernatant was transferred to a new 1.5 mL centrifuge tube to extract protein. The p-Akt ELISA experiment quantitatively detected the intracellular p-Akt protein level.
A series of p-Akt standard solutions with different concentrations were prepared, and the absorbance value was measured to make a standard curve. Phospho-Akt1 (Ser473) sandwich ELISA kit was purchased from Cell Signaling Technology (catalog number 7160). The antibody was coated in a 96-well plate at 4° C. overnight and was washed. The coated plate was blocked with 2% bovine serum albumin (BSA), and after sufficient washing, 100 μL of sample diluent (supplied in the kit) was added to each well to dilute the extracted protein. The plate was incubated overnight at 4° C. After washing 4 times with 200 μL of washing buffer (supplied in the kit), 100 μL/well of detection antibody was added and the plate was incubated at 37° C. for 1 hour. After 4 washes, 100 μL of HRP-conjugated secondary antibody (supplied in the kit) was added and the plate was incubated at 37° C. for 30 minutes. After the final wash, 100 μL of TMB substrate was added to each well and the plate was incubated at 37° C. for 10 minutes. TMB was use as a substrate to detect the signal, since TMB can be oxidized to produce a blue solution. The reaction was stopped by adding 100 μL/well stop solution, and the test result can remain stable within one hour after the stop of the reaction. The value of each well at 450 nm and 650 nm was detected using a microplate reader. The optical density (OD) was determined by subtracting the reading at 650 nm (disturbance from the solution itself) from the reading at 450 nm. According to the OD value corresponding to the standard curve, the p-Akt concentration in each well was obtained.
the data of each group was expressed as mean standard error (x±SEM). The ratio of the detection results of each positive control group (BNDF), control compound group (the same control compound as in Example 21) and each test compound group to the blank control group was used as an indicator to compare the p-Akt test results of the positive control group, control compound group, and each test compound group. One-way ANOVA and LSD post-hoc test were used to compare the measurement data among multiple groups, and P<0.05 was considered statistically significant.

SMILES: CN(C)C1CCN(c2ccc(-c3cc(=O)c4ccc(O)c(O)c4o3)cc2)CC1 [Example 3, 2-(4-(4-(dimethylamino)piperidin-1-yl)phenyl)-7,8-dihydroxy-4H-chromen-4-one]
- Time for crossing the beams, high-altitude balance beam (5 mm) (N171-82Q HD mice; 12 w): 12.20 ± 4.45 s
- Time for crossing the beams, high-altitude balance beam (5 mm) (N171-82Q HD mice; 18 w): 12.99 ± 4.72 s
- Time for crossing the beams, high-altitude balance beam (5 mm) (N171-82Q HD mice; 24 w): 13.11 ± 5.30 s
- Relative content of p-Akt protein (ELISA, ratio to blank control group) (Phospho-Akt S473): 247.33±3.18%

SMILES: O=c1cc(-c2ccc(N3CCCCC3)cc2)oc2c(O)c(O)ccc12 [Example 1, 7,8-dihydroxy-2-(4-(piperidin-1-yl)phenyl)-4H-chromen-4-one]
- Time for crossing the beams, high-altitude balance beam (5 mm) (N171-82Q HD mice; 12 w): 13.09 ± 4.39 s
- Time for crossing the beams, high-altitude balance beam (5 mm) (N171-82Q HD mice; 18 w): 12.09 ± 3.27 s
- Time for crossing the beams, high-altitude balance beam (5 mm) (N171-82Q HD mice; 24 w): 13.91 ± 3.33 s
- Relative content of p-Akt protein (ELISA, ratio to blank control group) (Phospho-Akt S473): 212.00±2.122%

SMILES: COc1ccc2c(=O)cc(-c3ccc(N4CCCCC4)cc3)oc2c1OC [Example 2, 7,8-dimethoxy-2-(4-(piperidin-1-yl)phenyl)-4H-chromen-4-one]
- Time for crossing the beams, high-altitude balance beam (5 mm) (N171-82Q HD mice; 12 w): 12.13 ± 4.97 s
- Time for crossing the beams, high-altitude balance beam (5 mm) (N171-82Q HD mice; 18 w): 13.96 ± 2.74 s
- Time for crossing the beams, high-altitude balance beam (5 mm) (N171-82Q HD mice; 24 w): 14.32 ± 5.44 s
- Relative content of p-Akt protein (ELISA, ratio to blank control group) (Phospho-Akt S473): 221.67±3.69%

SMILES: CC1CC(C)CN(c2ccc(-c3cc(=O)c4ccc(O)c(O)c4o3)cc2)C1 (centres unmarked) [Example 5, 2-(4-(3,5-dimethylpiperidin-1-yl)phenyl)-7,8-dihydroxy-4H-chromen-4-one]
- Time for crossing the beams, high-altitude balance beam (5 mm) (N171-82Q HD mice; 12 w): 14.25 ± 5.34 s
- Time for crossing the beams, high-altitude balance beam (5 mm) (N171-82Q HD mice; 18 w): 14.98 ± 5.05 s
- Time for crossing the beams, high-altitude balance beam (5 mm) (N171-82Q HD mice; 24 w): 16.80 ± 5.97 s
- Relative content of p-Akt protein (ELISA, ratio to blank control group) (Phospho-Akt S473): 217.32±2.57%

SMILES: CC1(C)CCN(c2ccc(-c3cc(=O)c4ccc(O)c(O)c4o3)cc2)CC1 [Example 4, 2-(4-(4,4-dimethylpiperidin-1-yl)phenyl)-7,8-dihydroxy-4H-chromen-4-one]
- Time for crossing the beams, high-altitude balance beam (5 mm) (N171-82Q HD mice; 12 w): 13.22 ± 4.59 s
- Time for crossing the beams, high-altitude balance beam (5 mm) (N171-82Q HD mice; 18 w): 13.88 ± 5.63 s
- Time for crossing the beams, high-altitude balance beam (5 mm) (N171-82Q HD mice; 24 w): 15.92 ± 7.87 s
- Relative content of p-Akt protein (ELISA, ratio to blank control group) (Phospho-Akt S473): 224.33±3.27%
